Assay results published in patent publication US10342776B2, “Compositions and methods for controlling infections” (priority 2004, dated 2019).

Assays:
[1] = tested on: Neisseria gonorrheae; details: earlier work, U.S. application Ser. No. 10/986,512; cited from earlier work
[2] = tested on: Gardnerella vaginalis; assay: G. vaginalis growth on chocolate agar plates with GML; type: cell-based; details: 24 hours
Procedure: (§1) Cells (1.2×10^7/ml in a total volume of 25 ml of dialyzable beef heart medium) of a recent clinical isolate of the gram negative rod Gardnerella vaginalis in vitro were cultured for various lengths of time with various concentrations of GML. At the various time points, the concentration of bacteria in the cultures were determined by colony counting on chocolate agar plates. GML at concentrations as low as 5 μg/ml were bactericidal to G. vaginalis. […] This finding points to the likely efficacy of GML in vivo. Moreover, GML (5 μg/ml or greater) inhibited growth of G. vaginalis plated (0.1 ml at 1.2×10^7/ml) onto chocolate agar plates (Table 3; data obtained after 24 hours of culturing).

[3] = tested on: Aspergillus fungi; assay: Mycelium formation on Todd Hewitt agar plates containing GML, Aspergillus; type: cell-based; details: for mycelium growth on plates: 36 hours, room temperature
Procedure: Organisms (at the spore phase) of Aspergillus and Penicillium fungi obtained from nature were separately streaked on Todd Hewitt agar plates containing various concentrations of GML. The plates were incubated at room temperature for 36 hours after which mycelium growth was determined by direct visual examination. […] In contrast, the organisms grew on plates containing 0 and 50 μg/ml.

[4] = tested on: Candida albicans (11 clinical isolates, hyphal phase); assay: Hyphal phase Candida albicans growth on Todd Hewitt agar plates containing GML; type: cell-based; details: 48 hours
Procedure: Candida albicans microorganisms were cultured on a Todd Hewitt agar plate for 48 hours at 37° C. in the presence of 7% CO2 to promote growth of hyphal forms. This plate was used to streak the microorganisms for isolation on Todd Hewitt agar plates containing 0, 10, 20, 50, or 100 μg/mL of GML. The plates were incubated for 48 hours and examined for Candida growth. The experiment was done in duplicate plates. The results obtained with duplicate plates were the same.
Organisms (at the hyphal phase) of 11 clinical isolates of Candida albicans were separately streaked on Todd Hewitt agar plates containing various concentrations of GML. The experiments were performed in duplicate. […] In contrast, the organisms grew on plates containing 0, 10 and 20 μg/ml.

[5] = tested on: Bacteroides fragilis ATCC 25285; assay: Kinetics of growth inhibition of Bacteroides fragilis in WC broth with GML, plate colony counting; type: cell-based
Procedure: The kinetics of growth-inhibition by GML of the obligate gram negative anaerobe Bacteroides fragilis ATCC 25285 was determined. An overnight culture of B. fragilis ATCC 25285 in Wilkens Chalgren (WC) broth was inoculated into fresh media (WC) to give a starting cell concentration of 1×10^7 cells/ml. […] […] Because growth of B. fragilis was inhibited by GML, it is expected that growth of the related gram negative anaerobe, Prevotella, would also be inhibited by GML.

[6] = tested on: Haemophilus influenzae (two clinical isolates); assay: Haemophilus influenzae growth on chocolate agar plates with GML; type: cell-based
Procedure: G. vaginalis was formerly designated Haemophilus vaginalis. This consideration raised the possibility that GML would inhibit the growth of Haemophilus influenzae. Two recent clinical isolates of encapsulated (capsule type not typable) Haemophilus influenzae (0.1 ml at 1.0×10^7/ml plated) organisms were tested for ability to grow on chocolate agar plates with no or various concentrations of GML (Table 4; data obtained after 24 of culture). The growth of both strains was inhibited at GML concentrations of 10 μg/ml or greater.

[7] = tested on: Candida albicans (five clinical isolates); assay: Growth inhibition of five other clinical isolates of Candida albicans in liquid culture (absorbance at 600 nm, CFU/ml); type: cell-based; details: for average CFU/ml after culturing: 6 hours, start about 10^6 CFU/ml
Procedure: Five clinical isolates of Candida albicans (separate from those tested in experiments described in Example 2) were tested for susceptibility to growth inhibition by GML. The data in FIG. 3 are the means of values obtained by separately testing each of the five clinical isolates. The experiments were performed in liquid culture as described in Example 2 except that, instead of measuring the number of organisms in the cultures by plating on agar plates, values of absorbance at 600 nm were determined at the indicated time points. An absorbance value of 6.5 corresponds to about 5×10^8 CFU/ml of Candida albicans. The growth of all of the isolates was inhibited by GML. Culturing for 6 hours 0.1 ml aliquots of the isolates (containing about 10^6 CFU/ml) in 100 μg/ml and 500 μg/ml of GML yielded an average of about 700 CFU/ml and about 400 CFU/ml, respectively.

[8] = tested on: Salmonella; assay: Direct toxicity of GML to Salmonella; type: cell-based
Text: (§2) Thus, it was surprising to discover that a number of other bacterial genera (see below) were highly sensitive to the direct toxic effects of GML.

[9] = tested on: Gardnerella vaginalis (clinical isolate); assay: G. vaginalis liquid culture in dialyzable beef heart medium with GML, colony counting; type: cell-based
Procedure: as §1

[10] = tested on: Escherichia coli; assay: Direct toxicity of GML to Escherichia coli; type: cell-based
Text: as §2

In the case of `CCCCCCCCCCCC(=O)OCC(O)CO` (stereo not drawn) [GML, glycerol monolaurate], the “resistance to direct toxic effects of GML” value [1] is given as “relatively resistant”, the “GML concentration that inhibited growth of G. vaginalis” value [2] is given as ≥ 5 µg/mL and the “Growth Characteristics” value ([2]; GML 1 μg/ml) is given as “Confluent growth”. For the same compound, the “Growth Characteristics” value ([2]; GML 5 μg/ml) was “No visible growth”, the “Growth Characteristics” value ([2]; GML 10 μg/ml) was “No visible growth” and the “Growth Characteristics” value ([2]; GML 20 μg/ml) was “No visible growth”. The “Growth Characteristics” value ([2]; GML 50 μg/ml) was “No visible growth”, the “Growth Characteristics” value ([2]; GML 100 μg/ml) was “No visible growth” and the “mycelium growth on plates” value ([3]; 50 μg/ml GML) was “grew”. For the same compound, the “colony size on plates” value ([3]; 50 μg/ml GML, about 4 days compared to 36 hours) was “larger in size”, the “mycelium growth on plates” value ([3]; 100 and 500 μg/ml GML) was “failed to grow” and the “visible colonies on plates” value ([3]; 100 and 500 μg/ml GML, about 4 days) was “no visible colonies”. For the same compound, the “growth on agar plates” value ([4]; 10 and 20 μg/ml GML) was “grew”, the “growth on agar plates” value ([4]; 50 and 100 μg/ml GML) was “failed to grow” and the “Cells/ml ×10^7 at 4.5 hours” value ([5]; GML 1 μg/ml, 4.5 hours) was 16 Cells/ml ×10^7. The “Cells/ml ×10^7 at 25 hours” value ([5]; GML 1 μg/ml) was 130 Cells/ml ×10^7, the “Cells/ml ×10^7 at 4.5 hours” value ([5]; GML 10 μg/ml, 4.5 hours) was 1.4 Cells/ml ×10^7 and the “Cells/ml ×10^7 at 25 hours” value ([5]; GML 10 μg/ml) was 150 Cells/ml ×10^7. For the same compound, the “Cells/ml ×10^7 at 4.5 hours” value ([5]; GML 20 μg/ml, 4.5 hours) was <0.01 Cells/ml ×10^7, the “fold fewer bacteria than the control culture” value ([5]; GML 20 μg/ml, 4.5 hours) was “at least 1,000 fold” and the regrowth of culture ([5]; GML 20 μg/ml, 24 hours) was “regrowth was observed”. For the same compound, the “Cells/ml ×10^7 at 25 hours” value ([5]; GML 20 μg/ml) was 200 Cells/ml ×10^7, the “Cells/ml ×10^7 at 4.5 hours” value ([5]; GML 50 μg/ml, 4.5 hours) was <0.01 Cells/ml ×10^7 and the “Cells/ml ×10^7 at 25 hours” value ([5]; GML 50 μg/ml) was <10 Cells/ml ×10^7. The “Cells/ml ×10^7 at 4.5 hours” value ([5]; GML 100 μg/ml, 4.5 hours) was <0.001 Cells/ml ×10^7, the “Cells/ml ×10^7 at 25 hours” value ([5]; GML 100 μg/ml) was <10 Cells/ml ×10^7 and the “growth of B. fragilis bacteria” value ([5]; GML 50 and 100 μg/ml) was “inhibited the growth”. For the same compound, the “Growth Characteristics (Strain 1)” value ([6]; GML 1 μg/ml) was “Confluent growth”, the “Growth Characteristics (Strain 2)” value ([6]; GML 1 μg/ml) was “Confluent growth” and the “Growth Characteristics (Strain 1)” value ([6]; GML 5 μg/ml) was “Confluent growth”. For the same compound, the “Growth Characteristics (Strain 2)” value ([6]; GML 5 μg/ml) was “Confluent growth”, the “Growth Characteristics (Strain 1)” value ([6]; GML 10 μg/ml) was “No visible growth” and the “Growth Characteristics (Strain 2)” value ([6]; GML 10 μg/ml) was “No visible growth”. The “Growth Characteristics (Strain 1)” value ([6]; GML 20 μg/ml) was “No visible growth”, the “Growth Characteristics (Strain 2)” value ([6]; GML 20 μg/ml) was “No visible growth” and the “Growth Characteristics (Strain 1)” value ([6]; GML 50 μg/ml) was “No visible growth”. For the same compound, the “Growth Characteristics (Strain 2)” value ([6]; GML 50 μg/ml) was “No visible growth”, the “Growth Characteristics (Strain 1)” value ([6]; GML 100 μg/ml) was “No visible growth” and the “Growth Characteristics (Strain 2)” value ([6]; GML 100 μg/ml) was “No visible growth”. For the same compound, the “GML concentration at which growth was inhibited” value ([6]; both strains, chocolate agar plates) was ≥ 10 µg/mL, the “average CFU/ml after culturing” value ([7]; 100 μg/ml GML) was “about 700 CFU/ml” and the “average CFU/ml after culturing” value ([7]; 500 μg/ml GML) was “about 400 CFU/ml”. For the same compound, the “growth of the isolates” value ([7]; five clinical isolates, liquid culture, absorbance at 600 nm) was “inhibited”, the “resistance to direct toxicity by GML” value [8] was “relatively resistant” and the “Cells/ml (×10^7) at 6 hours” value ([9]; GML 1 μg/ml) was 13 Cells/ml (×10^7). For the same compound, the “Cells/ml (×10^7) at 24 hours” value ([9]; GML 1 μg/ml) was 208 Cells/ml (×10^7), the “Cells/ml (×10^7) at 6 hours” value ([9]; GML 5 μg/ml) was 0.0002 Cells/ml (×10^7) and the “Cells/ml (×10^7) at 24 hours” value ([9]; GML 5 μg/ml) was 0.0004 Cells/ml (×10^7). For the same compound, the “Cells/ml (×10^7) at 6 hours” value ([9]; GML 10 μg/ml) was <0.000001 Cells/ml (×10^7), the “Cells/ml (×10^7) at 24 hours” value ([9]; GML 10 μg/ml) was <0.000001 Cells/ml (×10^7) and the “Cells/ml (×10^7) at 6 hours” value ([9]; GML 20 μg/ml) was <0.000001 Cells/ml (×10^7). The “Cells/ml (×10^7) at 24 hours” value ([9]; GML 20 μg/ml) was <0.000001 Cells/ml (×10^7), the “Cells/ml (×10^7) at 6 hours” value ([9]; GML 50 μg/ml) was <0.000001 Cells/ml (×10^7) and the “Cells/ml (×10^7) at 24 hours” value ([9]; GML 50 μg/ml) was <0.000001 Cells/ml (×10^7). The “Cells/ml (×10^7) at 6 hours” value ([9]; GML 100 μg/ml) was <0.000001 Cells/ml (×10^7), the “Cells/ml (×10^7) at 24 hours” value ([9]; GML 100 μg/ml) was <0.000001 Cells/ml (×10^7) and the “Cells/ml (×10^7) at 6 hours” value ([9]; GML 1000 μg/ml) was <0.000001 Cells/ml (×10^7). For the same compound, the “Cells/ml (×10^7) at 24 hours” value ([9]; GML 1000 μg/ml) was <0.000001 Cells/ml (×10^7), the “GML concentration bactericidal to G. vaginalis” value ([9]; liquid culture) was ≥ 5 µg/mL and the “resistance to direct toxicity by GML” value [10] was “relatively resistant”.
